Test results from the NIST ThermoML archive (doi:10.1021/acs.jced.8b00521).

Assay: xn = mol fraction of the nth substance listed
Conditions: 303.15 K, Liquid; for viscosity: Capillary tube (Ostwald / Ubbelohde) method; for mass density: Vibrating tube method

CCCCCCCC(=O)OCC [ethyl octanoate] + CCCCCCCCCCCC(=O)OC
Conditions	mass density [kg/m3]	viscosity [mPa·s]
100 kPa, x2 = 0.1	859	1.41
100 kPa, x2 = 0.1999	859	1.52
100 kPa, x2 = 0.3001	859	1.61
100 kPa, x2 = 0.4	860	1.71
100 kPa, x2 = 0.4999	860	1.82
100 kPa, x2 = 0.6001	860	1.96
100 kPa, x2 = 0.6999	861	2.08
100 kPa, x2 = 0.8001	861	2.19
100 kPa, x2 = 0.9	862	2.32
2940 kPa, x2 = 0.4999	862	1.9
2960 kPa, x2 = 0.1	860	1.46
2960 kPa, x2 = 0.3001	861	1.66
2980 kPa, x2 = 0.1999	860	1.56
2980 kPa, x2 = 0.4	861	1.75
2990 kPa, x2 = 0.6001	862	2.05
2990 kPa, x2 = 0.9	863	2.4
3000 kPa, x2 = 0.8001	863	2.28
3080 kPa, x2 = 0.6999	862	2.15
5980 kPa, x2 = 0.8001	865	2.37
6000 kPa, x2 = 0.4999	863	1.96
6010 kPa, x2 = 0.1	861	1.51
6020 kPa, x2 = 0.6001	864	2.12
6030 kPa, x2 = 0.1999	862	1.6
6040 kPa, x2 = 0.6999	864	2.24
6060 kPa, x2 = 0.9	865	2.48
6080 kPa, x2 = 0.3001	863	1.71
6100 kPa, x2 = 0.4	863	1.82
8950 kPa, x2 = 0.8001	867	2.44
8980 kPa, x2 = 0.1999	863	1.66
8980 kPa, x2 = 0.3001	864	1.78
8990 kPa, x2 = 0.4	865	1.88
8990 kPa, x2 = 0.9	868	2.56
9030 kPa, x2 = 0.1	863	1.55
9040 kPa, x2 = 0.6999	866	2.31
9050 kPa, x2 = 0.6001	866	2.19
9090 kPa, x2 = 0.4999	865	2.02
11960 kPa, x2 = 0.6999	868	2.38
11960 kPa, x2 = 0.8001	869	2.5
11980 kPa, x2 = 0.1	864	1.59
12000 kPa, x2 = 0.3001	866	1.83
12010 kPa, x2 = 0.6001	–	2.24
